This is an account of results in PubChem BioAssay (NCI).

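Briefly, cells in 96-well plates were exposed to five compound concentrations for 48 h, and endpoints were estimated by linear interpolation. GI50 is the concentration that inhibits growth by half. The concentration for full growth arrest is given as TGI.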

Holding throughout (assay): growth of human tumour cells (NCI), 48 h
The subject of test [1] is SN12C renal.
Test [2] has as its system SNB-75 CNS.
The test system of test [3] is HCC-2998 colon.
In test [4] the test system is CCRF-CEM leukemia.
Test [5] has as its system NCI-H460 lung.
The test system of test [6] is EKVX NSCLC.
The test system of test [7] is LOX IMVI melanoma.
Test [8] deals with HOP-92 NSCLC.
Test [9] relates to SNB-19 CNS.
Test [10] deals with OVCAR-3 ovarian.

As for `Cc1cc(I)cc(CNCCN(C)C)c1O`, the GI50 in [1] is greater than 85.6 µM; in [2] it was 49.4 µM; in test [3] it was 35.1 µM; in test [4], greater than 100 µM; in test [5], 44.1 µM; in [6] it was greater than 100 µM. The GI50 in test [7] was 44.3 µM; in [8] it was 37.2 µM; in test [9], greater than 100 µM; in test [10], greater than 86 µM. Moreover, the TGI in test [1], in [2], in test [3], in test [4], in test [5] and in test [6] was greater than 100 µM each time. The TGI in [7], in test [8], in test [9] and in [10] was greater than 100 µM each time.
`COc1ccc2c(c1)[C@@H](NC(C)=O)CCc1cc(OC)c(OC)c(OC)c1-2`: the TGI in test [1] is greater than 100 µM; in test [2], 12.9 µM; in test [3], 13 µM; in test [4], greater than 100 µM; in test [5], greater than 15.8 µM; in [6] it was greater than 100 µM. Besides, the TGI in test [7] was greater than 75.6 µM; in [8], greater than 9.04 µM; in [9], greater than 10.5 µM; in [10] it was less than 0.215 µM.
In the case of `CN1CCN(Cc2ccc(NC(=O)c3cncc(C#Cc4cnc(N)c5ncccc45)c3)cc2C(F)(F)F)CC1`, the GI50 in test [1] was 0.307 µM; in test [2] it was 0.391 µM; in test [3] it was 0.539 µM; in test [4] it was 0.324 µM; in [5], 0.261 µM; in [6], 0.589 µM. Further, the GI50 in test [7] was 0.216 µM; in [8], 0.209 µM; in [9] it was 2.11 µM; in test [10], 0.781 µM. For the same molecule, the TGI amounted to 1.5 µM in [1]; 1.48 µM in test [2]; 16.7 µM in [3]; 1.59 µM in test [5]; 15.5 µM in test [6]; 1.33 µM in test [7]. The TGI worked out at 1.24 µM in test [8], 11.8 µM in [9] and 4.88 µM in test [10].
With `Cc1c(Cl)cccc1C(=O)Nc1nc2c(s1)CN(C(=O)Nc1cccc(C(F)(F)F)c1)CC2`, the GI50 in test [1] was 0.334 µM; in test [2], 0.104 µM; in [3] it was 0.647 µM; in test [4], 0.194 µM; in [5], 0.182 µM; in [6], 0.346 µM. In addition, the GI50 is 0.226 µM in [7], 0.18 µM in test [8], 0.307 µM in test [9] and 0.14 µM in test [10]. Further, the TGI in test [1] is greater than 50 µM; in [2], 3.52 µM; in [3], 8.52 µM; in [4], greater than 50 µM; in test [5] it was greater than 17.4 µM; in [6] it was greater than 50 µM. The TGI in test [7] is 11 µM; in test [8], 15.6 µM; in test [9] it was greater than 50 µM; in test [10] it was 0.539 µM.
As to `CC(=O)/C(=C\c1ccc(Cl)cc1)c1ccccc1`, the GI50 in test [1] is 0.541 µM; in test [2] it was 0.0691 µM; in [3], 0.328 µM; in test [4] it was 0.0534 µM; in test [5], 0.0845 µM; in test [6] it was 1.82 µM. The GI50 was 0.123 µM in test [7], 0.12 µM in test [8], 0.344 µM in test [9] and 0.0383 µM in test [10]. Moreover, the TGI was greater than 100 µM in test [1]; greater than 100 µM in test [2]; greater than 68.9 µM in test [3]; greater than 100 µM in [4]; 13.5 µM in [5]; greater than 100 µM in test [6]. For the same molecule, the TGI in [7] was 16.2 µM; in test [8] it was greater than 26.2 µM; in [9], greater than 100 µM; in test [10] it was 0.229 µM.
Turning to `O=C(N/N=C/c1ccc(Cl)cc1)c1ccc(NC(=O)c2ccccn2)cc1`, the GI50 in test [1] is 18.9 µM; in test [2], 5.52 µM; in test [3] it was greater than 100 µM; in test [4], greater than 100 µM; in [5] it was 8.2 µM; in test [6], 48.7 µM. For the same molecule, the GI50 was 56.1 µM in test [7], 5.23 µM in [8], 30 µM in test [9] and 14 µM in test [10]. The TGI is 55.4 µM in test [1]; 24.9 µM in [2]; greater than 100 µM in test [3]; greater than 100 µM in [4]; 24.6 µM in test [5]; greater than 100 µM in test [6]. The TGI is greater than 100 µM in test [7], 53.2 µM in [8], greater than 100 µM in test [9] and 33.6 µM in test [10].
Take `CCN1CCN(CCC(=O)Nc2cccc(-n3cc(-c4ccncc4)c(-c4ccc(Cl)c(OC)c4)n3)c2)CC1`: the GI50 in test [1] was 0.623 µM; in [2], 0.392 µM; in test [3] it was 1.27 µM; in test [4] it was 0.374 µM; in test [5], 0.361 µM; in test [6], 1.06 µM. Moreover, the GI50 in [7] was 0.445 µM; in test [8] it was 0.776 µM; in test [9], 1.08 µM; in test [10] it was 0.352 µM. Moreover, the TGI in test [1] came out at 2.88 µM; in [2], 6.82 µM; in test [3] it was 2.63 µM; in test [4], 10.3 µM; in test [5], 1.37 µM; in [6], 4.76 µM. Further, the TGI in test [7] came out at 1.66 µM; in [8], 6.43 µM; in [9] it was 5.61 µM; in test [10], 1.43 µM.
`C[N+]1([O-])C2CCC1CC(OC(=O)C(CO)c1ccccc1)C2` (centres undefined): the TGI in test [1], in [2], in test [3], in test [4], in [5] and in [6] was greater than 100 µM in each case. In addition, the TGI in [7], in test [8], in [9] and in test [10] was greater than 100 µM throughout.
